The source of these data is article PMC8456958, “Selective Bacterial Targeting and Infection‐Triggered Release of Antibiotic Colistin Conjugates” (Angewandte Chemie (International Ed. in English), 2021).

Experiment [1] concerns E. coli K12. As to the kind of experiment: Infection assay in human plasma (CFU test, PMN/E. coli co-culture). The format is cell-based, Escherichia coli. The conditions noted are these: 10 μM, human blood plasma, bacteria:PMN 16:1, 1 h, 37 °C. The protocol:
(§1) Figure 5 Cellular proof of concept for triggered antibiotic release from 6. a) Release of neutrophil elastase (NE) from neutrophil granulocytes. PMN were isolated and suspended in RPMI 1640. For activation, 0.1 μM fMLP was added. The samples were incubated for 1 h at 37 °C, centrifuged to remove cells, and the NE concentration was determined in the supernatant by ELISA. Values normalized to 1×10^6 cells mL^−1. Data are presented as the mean of 4 separate experiments. *p<0.03 compared to unactivated. b) Activity of NE after co‐cultivation of PMN with E. coli K12 in presence of 1 or 6. […] After 1 h colistin concentrations were determined by HPLC–MS. […]
(§2) Calculation of results: All samples and standards were measured in duplicate. The standard curve was constructed by plotting the mean absorbance for each standard on the y-axis against the concentration on the x-axis. A linear regression analysis was performed and the results for the samples were calculated. […]
(§3) on. […] The plate was incubated in a microplate reader for 60 min at 37 °C with shaking for 5 sec at 50 rpm once per minute.
(§4) Every minute readings were taken at 410 nm. For the calculation of the cleavage velocity, the difference in absorbance after an initialization phase at 15 min and a further incubation time of 30 min was used and related to total cleavage of the substrate. The blank was subtracted from the readings. […]

The target of experiment [2] is T1, neutrophil elastase (NE) (Homo sapiens, UniProt P08246).
T1 construct: Activity of NE after co‐cultivation of PMN with E. coli K12 in presence of 1 or 6; endogenous in cells; host or cells: primary human PMN isolated from fresh venous whole blood of healthy volunteers, co-cultivated with E. coli K12
T1 sequence (P08246 30-267): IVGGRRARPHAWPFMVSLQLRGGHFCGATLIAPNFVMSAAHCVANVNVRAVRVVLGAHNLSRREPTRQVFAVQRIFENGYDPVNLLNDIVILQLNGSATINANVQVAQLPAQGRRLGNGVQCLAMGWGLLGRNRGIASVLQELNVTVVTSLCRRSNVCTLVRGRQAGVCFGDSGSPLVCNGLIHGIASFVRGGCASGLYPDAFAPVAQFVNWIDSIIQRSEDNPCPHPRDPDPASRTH
As to the kind of experiment: Activity of NE in co-cultivation of PMN with E. coli K12 (MeOSuc-AAPV-pNA cleavage). The format is cell-based. Conditions: 10 μM; PMN co-cultivated with E. coli K12, 1 h, 37 °C, RPMI 1640/HEPES-NaCl 1:1; mean of two experiments. On the procedure:
as §1, §2, §3, §4

SMILES strings stand for the structures. Positions of bridges follow the written chain, without caps; N, C: chain ends. Non-standard residues stand in square brackets, D forms with d. Residues, ends and D or L forms follow the SMILES beside them. *: point of attachment. Heptanoyl(6-Me) = CC(C)CCCCC(=O)*; Dab = NCC[C@H](N)C(=O)O

As for `CC(C)CCCCC(=O)N[C@@H](CCN)C(=O)N[C@H](C(=O)N[C@@H](CCN)C(=O)N[C@H]1CCNC(=O)[C@H]([C@@H](C)O)NC(=O)[C@H](CCN)NC(=O)[C@H](CCN)NC(=O)[C@H](CC(C)C)NC(=O)[C@@H](CC(C)C)NC(=O)[C@H](CCN)NC1=O)[C@@H](C)O` [Compound 1, colistin B, reference compound] ({Heptanoyl(6-Me)}-[Dab]T[Dab][Dab][Dab][dL]L[Dab][Dab]T; lactam 4-C), the “effect on bacterial growth” value in experiment [1] was “abolished growth completely”. For the same compound, the “enhancing effect on the activity of NE” value in experiment [2] was 2.3–2.5 fold.
